6 compounds from ChEMBL document CHEMBL5620386, “Synthesis, biological screening and in silico studies of new N-phenyl-4-(1,3-diaryl-1H-pyrazol-4-yl)thiazol-2-amine derivatives as potential antifungal and antitubercular agents” (Eur J Med Chem, 2023) can be followed below.

Structures are written as SMILES. ≈ marks a conversion by molar mass, not a printed value. Where “and” joins values, the source holds several entries; their conditions need not be identical. Equal values may be shown once. Calls of active or inactive are those of the source. The calls are words filed in the database; no cut-off is given here.

Data set [1] can be described thus: Cytotoxicity against mouse 3T3-L1 cells assessed as cell viability at 25 ug/ml measured after 24 hrs by MTT assay relative to control. The conditions noted are these: at 25 µg/mL, read-out: Activity. The data set is classed as toxicity, cell-based.
Data set [2] relates to Staphylococcus aureus. Kind of data set: Antimicrobial activity against Staphylococcus aureus NCIM 2178 assessed as zone of inhibition by well diffusion method. The data set is classed as functional.
Data set [3] relates to Candida albicans. In words: Antifungal activity against Candida albicans NCIM 3100 assessed as zone of inhibition by well diffusion method. Format: functional.
In data set [4] the test system is Staphylococcus aureus. In words: Antimicrobial activity against Staphylococcus aureus NCIM 2178 assessed as absence of growth by well diffusion method. Format: functional.
The test system of data set [5] is Mycobacterium tuberculosis. Kind of data set: Antitubercular activity Mycobacterium tuberculosis H37Rv strain ATCC No- 27294 assessed as prevention of color change from blue to pink using Almar Blue measured after 24 hrs by MABA assay. The data set is classed as functional.
For data set [6], the system named is Proteus mirabilis. In words: Antimicrobial activity against Proteus mirabilis NCIM 2388 assessed as zone of inhibition by well diffusion method. The data set is classed as functional.
Data set [7] relates to Escherichia coli. In words: Antimicrobial activity against Escherichia coli NCIM 2574 assessed as zone of inhibition by well diffusion method. The data set is classed as functional.
Data set [8] relates to Aspergillus niger. Kind of data set: Antifungal activity against Aspergillus niger ATCC 504 assessed as absence of growth by well diffusion method. The data set is classed as functional.
The test system of data set [9] is Aspergillus niger. Kind of data set: Antifungal activity against Aspergillus niger ATCC 504 assessed as zone of inhibition by well diffusion method. The data set is classed as functional.
For data set [10], the system named is Bacillus subtilis. In words: Antimicrobial activity against Bacillus subtilis NCIM 2063 assessed as zone of inhibition by well diffusion method. Format: functional.
Data set [11] in a line: Cytotoxicity against mouse 3T3-L1 cells assessed as cell viability at 12.5 ug/ml measured after 24 hrs by MTT assay relative to control. The data set is classed as toxicity, cell-based. As to conditions: at 12.5 µg/mL, read-out: Activity.
For data set [12], the system named is Proteus mirabilis. Kind of data set: Antimicrobial activity against Proteus mirabilis NCIM 2388 assessed as absence of growth by well diffusion method. Format: functional.

`Fc1ccc(-n2cc(-c3csc(Nc4ccccc4)n3)c(-c3ccc(Cl)cc3)n2)cc1`: the viability at 24 h, 25 ug/ml in [1] stood at 62.6%. Moreover, the “inhibition zone (IZ)” value in data set [2] worked out at 15 mm; in data set [3] it was 11 mm; in data set [6], 14.2 mm; in data set [9] it was 18.2 mm; in data set [10], 13.4 mm. For the same compound, the MIC in data set [4] was 125 µg/mL (≈ 280 µM); in data set [5], 1.6 µg/mL and 3.58 µM; in data set [8], 15.6 µg/mL and 35 µM; in [12], 125 µg/mL (≈ 280 µM). The “inhibition zone (IZ)” value in data set [7] was “inactive”. Moreover, the viability at 24 h, 12.5 ug/ml in data set [11] came out at 69.2%.

For `COc1ccc(Nc2nc(-c3cn(-c4ccccc4)nc3-c3ccc(C)cc3)cs2)cc1`, in data set [1], the viability at 24 h, 25 ug/ml worked out at 90.5%. For the same compound, the “inhibition zone (IZ)” value in [2] worked out at 14 mm; in data set [3], 10.6 mm; in [6], 15 mm; in data set [9], 18.6 mm; in [10] it was 12.4 mm. For the same compound, the MIC in data set [4] was 125 µg/mL (≈ 285 µM); in data set [5], 50 µg/mL and 114 µM; in [8], 15.6 µg/mL and 35.7 µM; in data set [12], 125 µg/mL (≈ 285 µM). In data set [7], the “inhibition zone (IZ)” value is “inactive”. The viability at 24 h, 12.5 ug/ml in [11] was found to be 97.5%.

`Clc1ccc(Nc2nc(-c3cn(-c4ccccc4)nc3-c3ccc(Cl)cc3)cs2)cc1`: the viability at 24 h, 25 ug/ml in data set [1] came out at 99.2%. Further, the “inhibition zone (IZ)” value in data set [2] came to 14.2 mm; in data set [3], 10.4 mm; in data set [6], 14 mm; in [9] it was 17.4 mm; in [10], 11.6 mm. The MIC was 125 µg/mL (≈ 270 µM) in data set [4]; 1.6 µg/mL and 3.46 µM in data set [5]; 31.2 µg/mL and 67.5 µM in data set [8]; 125 µg/mL (≈ 270 µM) in data set [12]. Also, the “inhibition zone (IZ)” value in data set [7] was “inactive”. The viability at 24 h, 12.5 ug/ml in [11] was 118%.

`Fc1ccc(-n2cc(-c3csc(Nc4ccc(Cl)cc4)n3)c(-c3ccccc3)n2)cc1`: the viability at 24 h, 25 ug/ml in data set [1] came out at 46%. Besides, the “inhibition zone (IZ)” value was found to be 16 mm in data set [2]; 10.8 mm in [3]; 15 mm in data set [6]; 13 mm in data set [7]; 18.8 mm in data set [9]; 13 mm in data set [10]. Further, the MIC in data set [4] is 62.5 µg/mL and 140 µM; in data set [5], 3.12 µg/mL and 7.01 µM; in data set [8] it was 15.6 µg/mL and 35 µM; in data set [12], 125 µg/mL (≈ 280 µM). Also, the viability at 24 h, 12.5 ug/ml in data set [11] worked out at 102%.

For `c1ccc(Nc2nc(-c3cn(-c4ccccc4)nc3-c3ccccc3)cs2)cc1`, the viability at 24 h, 25 ug/ml in data set [1] is 90.5%. Moreover, the “inhibition zone (IZ)” value in [2] is given as 16 mm; in data set [3], 11.2 mm; in [6], 15 mm; in [9], 18.8 mm; in data set [10], 11.2 mm. Besides, the MIC is 62.5 µg/mL and 1590 µM in data set [4]; 1.6 µg/mL and 4.06 µM in data set [5]; 15.6 µg/mL and 39.6 µM in data set [8]; 125 µg/mL (≈ 317 µM) in data set [12]. The “inhibition zone (IZ)” value in data set [7] was “inactive”. Also, the viability at 24 h, 12.5 ug/ml in data set [11] amounted to 97.5%.

Consider `Cc1ccc(Nc2nc(-c3cn(-c4ccc(F)cc4)nc3-c3ccc(Cl)cc3)cs2)cc1`, for which, in data set [1], the viability at 24 h, 25 ug/ml is 91.3%. The “inhibition zone (IZ)” value in data set [2] is on record as 17 mm; in data set [3], 10.8 mm; in data set [6] it was 15 mm; in [9] it was 20.2 mm; in [10], 12.2 mm. Moreover, the MIC in [4] is 62.5 µg/mL and 136 µM; in data set [5] it was 1.6 µg/mL and 3.47 µM; in data set [8], 15.6 µg/mL and 34 µM; in data set [12], 125 µg/mL (≈ 271 µM). The “inhibition zone (IZ)” value in data set [7] was “inactive”. In addition, the viability at 24 h, 12.5 ug/ml in data set [11] is 72%.
